Results from ChEMBL document CHEMBL3872220, “Amphiphilic xanthones as a potent chemical entity of anti-mycobacterial agents with membrane-targeting properties” (Eur J Med Chem, 2016).

Columns and labels:
Type in all cases: functional, Mycobacterium tuberculosis variant bovis BCG
[1] = test system: Mycobacterium tuberculosis variant bovis; experiment: Antimycobacterial activity against Mycobacterium bovis BCG ATCC 35734 assessed as ATP leakage by measuring extracellular ATP at 2 times MIC measured at 24 hrs post dose by luciferase reporter gene assay
[2] = test system: Mycobacterium tuberculosis variant bovis; experiment: Antimycobacterial activity against Mycobacterium bovis BCG ATCC 35734 assessed as ATP leakage by measuring extracellular ATP at 1 MIC measured at 24 hrs post dose by luciferase reporter gene assay
[3] = test system: Mycobacterium tuberculosis variant bovis; experiment: Antimycobacterial activity against Mycobacterium bovis BCG ATCC 35734 assessed as ATP leakage by measuring extracellular ATP at 0.5 times MIC measured at 24 hrs post dose by luciferase reporter gene assay
[4] = test system: Mycobacterium tuberculosis variant bovis; experiment: Antimycobacterial activity against Mycobacterium bovis BCG ATCC 35734 assessed as ATP leakage by measuring intracellular ATP at 4 times MIC measured at 9 hrs post dose by luciferase reporter gene assay
[5] = test system: Mycobacterium tuberculosis variant bovis; experiment: Antimycobacterial activity against Mycobacterium bovis BCG ATCC 35734 assessed as ATP leakage by measuring intracellular ATP at 2 times MIC measured at 9 hrs post dose by luciferase reporter gene assay
[6] = test system: Mycobacterium tuberculosis variant bovis; experiment: Antimycobacterial activity against Mycobacterium bovis BCG ATCC 35734 assessed as ATP leakage by measuring extracellular ATP at 2 times MIC measured at 9 hrs post dose by luciferase reporter gene assay
[7] = test system: Mycobacterium tuberculosis variant bovis; experiment: Antimycobacterial activity against Mycobacterium bovis BCG ATCC 35734 assessed as ATP leakage by measuring extracellular ATP at 0.5 times MIC measured immediatey after addition of compounds by luciferase reporter gene assay
[8] = test system: Mycobacterium tuberculosis variant bovis; experiment: Antimycobacterial activity against Mycobacterium bovis BCG ATCC 35734 assessed as ATP leakage by measuring intracellular ATP at 1 MIC measured immediatey after addition of compounds by luciferase reporter gene assay
[9] = test system: Mycobacterium tuberculosis variant bovis; experiment: Antimycobacterial activity against Mycobacterium bovis BCG ATCC 35734 assessed as ATP leakage by measuring extracellular ATP at 4 times MIC measured immediatey after addition of compounds by luciferase reporter gene assay
[10] = test system: Mycobacterium tuberculosis variant bovis; experiment: Antimycobacterial activity against Mycobacterium bovis BCG ATCC 35734 assessed as ATP leakage by measuring extracellular ATP at 2 times MIC measured immediatey after addition of compounds by luciferase reporter gene assay
[11] = test system: Mycobacterium tuberculosis variant bovis; experiment: Antimycobacterial activity against Mycobacterium bovis BCG ATCC 35734 assessed as ATP leakage by measuring extracellular ATP at 1 MIC measured immediatey after addition of compounds by luciferase reporter gene assay
[12] = test system: Mycobacterium tuberculosis variant bovis; experiment: Antimycobacterial activity against Mycobacterium bovis BCG ATCC 35734 assessed as ATP leakage by measuring extracellular ATP at 0.5 times MIC measured at 9 hrs post dose by luciferase reporter gene assay
[13] = test system: Mycobacterium tuberculosis variant bovis; experiment: Antimycobacterial activity against Mycobacterium bovis BCG ATCC 35734 assessed as ATP leakage by measuring intracellular ATP at 4 times MIC measured at 6 hrs post dose by luciferase reporter gene assay
[14] = test system: Mycobacterium tuberculosis variant bovis; experiment: Antimycobacterial activity against Mycobacterium bovis BCG ATCC 35734 assessed as ATP leakage by measuring intracellular ATP at 1 MIC measured at 6 hrs post dose by luciferase reporter gene assay
[15] = test system: Mycobacterium tuberculosis variant bovis; experiment: Antimycobacterial activity against Mycobacterium bovis BCG ATCC 35734 assessed as ATP leakage by measuring extracellular ATP at 4 times MIC measured at 6 hrs post dose by luciferase reporter gene assay
[16] = test system: Mycobacterium tuberculosis variant bovis; experiment: Antimycobacterial activity against Mycobacterium bovis BCG ATCC 35734 assessed as ATP leakage by measuring extracellular ATP at 2 times MIC measured at 6 hrs post dose by luciferase reporter gene assay
[17] = test system: Mycobacterium tuberculosis variant bovis; experiment: Antimycobacterial activity against Mycobacterium bovis BCG ATCC 35734 assessed as ATP leakage by measuring extracellular ATP at 0.5 times MIC measured at 6 hrs post dose by luciferase reporter gene assay
[18] = test system: Mycobacterium tuberculosis variant bovis; experiment: Antimycobacterial activity against Mycobacterium bovis BCG ATCC 35734 assessed as ATP leakage by measuring intracellular ATP at 2 times MIC measured at 3 hrs post dose by luciferase reporter gene assay
[19] = test system: Mycobacterium tuberculosis variant bovis; experiment: Antimycobacterial activity against Mycobacterium bovis BCG ATCC 35734 assessed as ATP leakage by measuring intracellular ATP at 1 MIC measured at 3 hrs post dose by luciferase reporter gene assay
[20] = test system: Mycobacterium tuberculosis variant bovis; experiment: Antimycobacterial activity against Mycobacterium bovis BCG ATCC 35734 assessed as ATP leakage by measuring intracellular ATP at 0.5 times MIC measured at 3 hrs post dose by luciferase reporter gene assay
[21] = test system: Mycobacterium tuberculosis variant bovis; experiment: Antimycobacterial activity against Mycobacterium bovis BCG ATCC 35734 assessed as ATP leakage by measuring extracellular ATP at 4 times MIC measured at 3 hrs post dose by luciferase reporter gene assay
[22] = test system: Mycobacterium tuberculosis variant bovis; experiment: Antimycobacterial activity against Mycobacterium bovis BCG ATCC 35734 assessed as ATP leakage by measuring extracellular ATP at 0.5 times MIC measured at 3 hrs post dose by luciferase reporter gene assay
[23] = test system: Mycobacterium tuberculosis variant bovis; experiment: Antimycobacterial activity against Mycobacterium bovis BCG ATCC 35734 assessed as ATP leakage by measuring intracellular ATP at 4 times MIC measured at 1 hr post dose by luciferase reporter gene assay
[24] = test system: Mycobacterium tuberculosis variant bovis; experiment: Antimycobacterial activity against Mycobacterium bovis BCG ATCC 35734 assessed as ATP leakage by measuring intracellular ATP at 2 times MIC measured at 1 hr post dose by luciferase reporter gene assay
[25] = test system: Mycobacterium tuberculosis variant bovis; experiment: Antimycobacterial activity against Mycobacterium bovis BCG ATCC 35734 assessed as ATP leakage by measuring intracellular ATP at 1 MIC measured at 1 hr post dose by luciferase reporter gene assay
[26] = test system: Mycobacterium tuberculosis variant bovis; experiment: Antimycobacterial activity against Mycobacterium bovis BCG ATCC 35734 assessed as ATP leakage by measuring intracellular ATP at 0.5 times MIC measured at 1 hr post dose by luciferase reporter gene assay
[27] = test system: Mycobacterium tuberculosis variant bovis; experiment: Antimycobacterial activity against Mycobacterium bovis BCG ATCC 35734 assessed as ATP leakage by measuring extracellular ATP at 4 times MIC measured at 1 hr post dose by luciferase reporter gene assay
[28] = test system: Mycobacterium tuberculosis variant bovis; experiment: Antimycobacterial activity against Mycobacterium bovis BCG ATCC 35734 assessed as ATP leakage by measuring extracellular ATP at 1 MIC measured at 1 hr post dose by luciferase reporter gene assay
[29] = test system: Mycobacterium tuberculosis variant bovis; experiment: Antimycobacterial activity against Mycobacterium bovis BCG ATCC 35734 assessed as ATP leakage by measuring extracellular ATP at 0.5 times MIC measured at 1 hr post dose by luciferase reporter gene assay
[30] = test system: Mycobacterium tuberculosis variant bovis; experiment: Induction of membrane integrity impairment in Mycobacterium bovis BCG ATCC 35734 assessed as pH shift at 60 uM measured after 3 hrs by CMFDA dye based fluorescence spectroscopic method relative to control
[31] = test system: Mycobacterium tuberculosis variant bovis; experiment: Antimycobacterial activity against Mycobacterium bovis BCG ATCC 35734 assessed as ATP leakage by measuring intracellular ATP at 1 MIC measured at 24 hrs post dose by luciferase reporter gene assay
[32] = test system: Mycobacterium tuberculosis variant bovis; experiment: Antimycobacterial activity against Mycobacterium bovis BCG ATCC 35734 assessed as ATP leakage by measuring intracellular ATP at 2 times MIC measured at 24 hrs post dose by luciferase reporter gene assay

Compound | Activity [1] | Activity [2] | Activity [3] | Activity [4] | Activity [5] | Activity [6] | Activity [7] | Activity [8] | Activity [9] | Activity [10] | Activity [11] | Activity [12] | Activity [13] | Activity [14] | Activity [15] | Activity [16] | Activity [17] | Activity [18] | Activity [19] | Activity [20] | other results
COc1c(OCCCCN2CCOCC2)cc2oc3cc(OCCCCN4CCOCC4)c(CC=C(C)C)c(O)c3c(=O)c2c1CC=C(C)C | 50.2% | 4.5% | 4.8% | 41.6% | 66.9% | 33.1% | 0% | 95.3% | 14.3% | 8.1% | 4.7% | 7.3% | 37.2% | 85.6% | 62.8% | 27.4% | 8.6% | 80% | 92.3% | 91.4% | Activity [21]: 33.4%; Activity [22]: 8.6%; Activity [23]: 74.6%; Activity [24]: 83.3%; Activity [25]: 88.5%; Activity [26]: 79.8%; Activity [27]: 25.4%; Activity [28]: 11.5%; Activity [29]: 20.2%; Activity [30]: 30%; Activity [31]: 95.5%; Activity [32]: 49.8%
CCCN(CCC)CCCCOc1cc2oc3cc(OCCCCN(CCC)CCC)c(OC)c(CC=C(C)C)c3c(=O)c2c(O)c1CC=C(C)C | 70.5% | 37.5% | 15.6% | 16% | 24.7% | 75.3% | 0% | 97.5% | 9.4% | 2.2% | 2.5% | 25.4% | 30.3% | 69.6% | 69.7% | 63.2% | 28% | 55.8% | 75.8% | 79.9% | Activity [21]: 42.1%; Activity [22]: 20.1%; Activity [23]: 83.2%; Activity [24]: 89.9%; Activity [25]: 86.8%; Activity [26]: 74.9%; Activity [27]: 16.8%; Activity [28]: 13.2%; Activity [29]: 25.1%; Activity [30]: 61.6%; Activity [31]: 62.5%; Activity [32]: 29.5%
CCN(CC)CCCCOc1cc2oc3cc(OCCCCN(CC)CC)c(OC)c(CC=C(C)C)c3c(=O)c2c(O)c1CC=C(C)C | 94.1% | 86.4% | 34.7% | 5.5% | 7.2% | 92.8% | 0% | 98% | 10.5% | 3.6% | 2% | 47.2% | 6.7% | 29.3% | 93.3% | 91.9% | 22.9% | 16.4% | 33.9% | 72.6% | Activity [21]: 89.6%; Activity [22]: 27.4%; Activity [23]: 34%; Activity [24]: 57.6%; Activity [25]: 75.1%; Activity [26]: 79.2%; Activity [27]: 66%; Activity [28]: 24.9%; Activity [29]: 20.8%; Activity [30]: 68.7%; Activity [31]: 13.6%; Activity [32]: 5.9%
